For 14 compounds, IC50 results are on record in patent publication US20180243298A1, “TRPV3 MODULATORS” (AbbVie Inc., priority 2015, published 2018).

This assay deals with T1, human TRPV3 (Homo sapiens, UniProt Q8NET8).
T1 construct: expressed in transfected cells; host or cells: HEK293
T1 sequence (Q8NET8 1-790): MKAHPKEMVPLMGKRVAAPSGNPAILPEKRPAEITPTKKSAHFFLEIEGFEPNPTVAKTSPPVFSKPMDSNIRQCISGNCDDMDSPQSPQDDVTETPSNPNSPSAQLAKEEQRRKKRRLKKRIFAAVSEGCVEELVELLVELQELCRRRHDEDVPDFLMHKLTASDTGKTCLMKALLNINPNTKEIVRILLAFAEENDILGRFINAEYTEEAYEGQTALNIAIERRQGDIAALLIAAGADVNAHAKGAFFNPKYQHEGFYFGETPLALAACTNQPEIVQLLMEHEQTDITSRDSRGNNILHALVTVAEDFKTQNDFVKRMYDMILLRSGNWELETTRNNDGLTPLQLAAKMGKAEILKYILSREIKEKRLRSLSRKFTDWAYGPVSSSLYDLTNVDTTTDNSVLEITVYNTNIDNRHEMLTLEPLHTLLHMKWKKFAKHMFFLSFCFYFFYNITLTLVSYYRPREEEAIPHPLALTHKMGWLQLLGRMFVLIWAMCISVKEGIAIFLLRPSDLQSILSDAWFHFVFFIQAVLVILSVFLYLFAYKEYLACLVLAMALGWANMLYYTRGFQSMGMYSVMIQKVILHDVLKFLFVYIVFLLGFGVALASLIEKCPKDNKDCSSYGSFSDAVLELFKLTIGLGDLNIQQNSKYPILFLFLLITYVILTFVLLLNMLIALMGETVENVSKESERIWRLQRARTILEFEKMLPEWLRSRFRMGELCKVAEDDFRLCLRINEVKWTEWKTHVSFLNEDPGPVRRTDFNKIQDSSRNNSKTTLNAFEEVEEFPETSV
The experiment in a line: Calcium flux assay (FLIPR TETRA), recombinant HEK293 cells expressing TRPV3, 2-APB response. The class given is cell-based. The note with it: 2-APB at its EC80. A digest of the protocol:
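HEK293 cells stably expressing human or mouse TRPV3, loaded with Calcium-4 dye for 90–120 min, read on FLIPR TETRA. Peak fluorescence rise over baseline expressed as percent of the maximal response to 2-APB at its EC80 without compound.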
For orientation: A change in cytosolic calcium serves as a functional read-out for many receptors and channels.
As to `C#Cc1sc(NC(=O)c2c(OC)ncnc2OC)nc1C(F)(F)F` [Example 11, N-[5-ethynyl-4-(trifluoromethyl)-1,3-thiazol-2-yl]-4,6-dimethoxypyrimidine-5-carboxamide], the IC50 was less than 50 nM.

On to `COC/C=C\c1sc(NC(=O)c2c(OC)ncnc2OC)nc1C(F)(F)F` [Example 17, 4,6-dimethoxy-N-{5-[(1Z)-3-methoxyprop-1-en-1-yl]-4-(trifluoromethyl)-1,3-thiazol-2-yl}pyrimidine-5-carboxamide], for which the concentration for half-maximal inhibition (IC50) is less than 50 nM. As for `CCOC(=O)c1sc(NC(=O)c2c(OC)ncnc2OC)nc1-c1ccc(C(F)(F)F)cn1` [Example 75, ethyl 2-{[(4,6-dimethoxypyrimidin-5-yl)carbonyl]amino}-4-[5-(trifluoromethyl)pyridin-2-yl]-1,3-thiazole-5-carboxylate], the figure is 100 to 500 nM; as for `COc1ncnc(OC)c1C(=O)Nc1nc(C(C)(C)C)c(F)s1` [Example 100, N-(4-tert-butyl-5-fluoro-1,3-thiazol-2-yl)-4,6-dimethoxypyrimidine-5-carboxamide], less than 50 nM. As for `COc1ncnc(OC)c1C(=O)Nc1nc(C(F)(F)F)c(-c2cnc(N3CCOCC3)c(C#N)c2)s1` [Example 204, N-{5-[5-cyano-6-(morpholin-4-yl)pyridin-3-yl]-4-(trifluoromethyl)-1,3-thiazol-2-yl}-4,6-dimethoxypyrimidine-5-carboxamide], the figure is less than 50 nM; as for `COc1ncnc(OC)c1C(=O)Nc1nc(-c2ccc(OC(F)(F)F)cc2)c(C(C)O)s1` (centres unmarked) [Example 82, N-{5-(1-hydroxyethyl)-4-[4-(trifluoromethoxy)phenyl]-1,3-thiazol-2-yl}-4,6-dimethoxypyrimidine-5-carboxamide], 100 to 500 nM. As for `COc1ncnc(OC)c1C(=O)Nc1nc(C(F)(F)F)c(C2=CCC(C#N)CC2)s1` (centres unmarked) [Example 164, N-[5-(4-cyanocyclohex-1-en-1-yl)-4-(trifluoromethyl)-1,3-thiazol-2-yl]-4,6-dimethoxypyrimidine-5-carboxamide], the figure is 100 to 500 nM. As to `COc1ncnc(OC)c1C(=O)Nc1nc(C(F)(F)F)c(CCCO)s1` [Example 13, N-[5-(3-hydroxypropyl)-4-(trifluoromethyl)-1,3-thiazol-2-yl]-4,6-dimethoxypyrimidine-5-carboxamide], the IC50 is more than 1000 nM. Consider `COc1ncnc(OC)c1C(=O)Nc1nc(C2CCC2)c(F)s1` [Example 101, N-(4-cyclobutyl-5-fluoro-1,3-thiazol-2-yl)-4,6-dimethoxypyrimidine-5-carboxamide], for which the IC50 lay within 50 to 100 nM.

With `COc1ncnc(OC)c1C(=O)Nc1nc(C(F)(F)F)c(-c2ccnn2C)s1` [Example 176, 4,6-dimethoxy-N-[5-(1-methyl-1H-pyrazol-5-yl)-4-(trifluoromethyl)-1,3-thiazol-2-yl]pyrimidine-5-carboxamide], the IC50 was 100 to 500 nM. As for `COc1ncnc(OC)c1C(=O)Nc1nc(C(F)(F)F)c(C(=O)C(C)(C)C)s1` [Example 124, N-[5-(2,2-dimethylpropanoyl)-4-(trifluoromethyl)-1,3-thiazol-2-yl]-4,6-dimethoxypyrimidine-5-carboxamide], the IC50 is less than 50 nM. Take `COc1ncnc(OC)c1C(=O)Nc1nc(C(F)(F)F)c(/C(C)=N/O)s1` [Example 134, N-{5-[(1E)-N-hydroxyethanimidoyl]-4-(trifluoromethyl)-1,3-thiazol-2-yl}-4,6-dimethoxypyrimidine-5-carboxamide]: the IC50 lay within 100 to 500 nM. With `COc1ncnc(OC)c1C(=O)Nc1nc(C(F)(F)F)c(CNC2CCCC2)s1` [Example 51, N-{5-[(cyclopentylamino)methyl]-4-(trifluoromethyl)-1,3-thiazol-2-yl}-4,6-dimethoxypyrimidine-5-carboxamide] the figure was 100 to 500 nM; with `COc1ncnc(OC)c1C(=O)Nc1nc(C(F)(F)F)c(-c2cn(C)nc2C)s1` [Example 67, N-[5-(1,3-dimethyl-1H-pyrazol-4-yl)-4-(trifluoromethyl)-1,3-thiazol-2-yl]-4,6-dimethoxypyrimidine-5-carboxamide], 50 to 100 nM.

In general, IC50 refers to the concentration that gives 50% inhibition.
